Measurements from patent publication US12544421B2, “VDAC inhibitors for treating inflammatory bowel diseases” (THE NATIONAL INSTITUTE FOR BIOTECHNOLOGY IN THE NEGEV LTD., priority 2018, dated 2026).

What was measured:
[1] = test system: DSS-induced IBD mice; experiment: Dextran sodium sulfate (DSS)-induced colitis / IBD mouse model: weight, survival, colon and cecum length, clinical score, spleen weight; assay type: in vivo, C57BL/6 mice
Excerpt: Healthy female, specific pathogen free (SPF) C57BL/6 (H-2b), 6-7 weeks old mice were obtained from Invigo, Israel. Animal housing and care conditions was maintained according to the experimental protocols approved by the Institutional Animal Care and Use Committee. Mice were weighed and examined for health.
Animals were provided ad libitum a commercial rodent diet, and free access to either regular or DSS-containing drinking water for the respective designated test groups, supplied to each cage via polyethylene bottles with stainless steel sipper tubes.
Dextran sodium sulfate (DSS)-induced colitis was used.
All animals were subjected to experimental Colitis induction by providing DSS in the drinking water, continuously supplied ad libitum for 6 days, followed subsequently by 8 days of regular drinking water until study termination on day 14 (FIG. 1A).
Determination of individual body weights of mice was performed before disease induction and thereafter once daily, starting from study day 0 until the time of scheduled euthanasia of survivors on Day 14.
Animals were observed, and clinical signs recorded once daily starting from study day 1 and onwards until the time of scheduled euthanasia. Evaluation of clinical signs was scored according to the grading system listed below.
Immediately after euthanasia, the entire large intestine from the ileo-caecal junction to the anus were removed, weighed and the length of the colon was measured using a ruler.
The Maximal Scores of all mice in each group was be summed, and the MMS calculation was as follows: […]
The mean colon length of each group was calculated, and the percentage of shortening of the colon was calculated as follows: […]
The mean caecum length of each group was calculated, and the percentage of shortening of caecum was calculated as follows: […]

[2] = test system: colon of DSS-induced IBD mice; experiment: Histological sections of colon of DSS-induced IBD mice (H&E, anti-VDAC1 immunostaining); assay type: in vivo, C57BL/6 mice
Excerpt: FIGS. 6A-6D are micrographs of histological sections of DSS-induced IBD in C57BL/6 mice, stained with hematoxylin and eosin (H&E). Scale bar represents 100 μm. (6A) Control; (6B) 2.5% DSS; (6C) DSS+VBIT-4; and (6D) DSS+VBIT-12.
FIGS. 7A-7D are micrographs of histological sections of DSS-induced IBD in C57BL/6 mice highlighting the effects of VBIT-4 and VIBT-12 on the colon wall thickness and lymphatic infiltration thereto. (7A) Control; (7B) 2.5% DSS; (7C) DSS+VBIT-12; and […] DSS+VBIT-4.
FIGS. 8A-8D are micrographs of histological sections of DSS-induced IBD in C57BL/6 mice, immunostained with an anti VDAC-1 specific antibody. (8A) Control; (8B) 2.5% DSS; (8C) 2.5% DSS+VBIT-4; and (8D) 2.5% DSS+VBIT-12.
IBD colons were also found to contain large lymphatic sacks and also experienced high infiltration of inflammatory cells towards the colonic lumen.

[3] = test system: CT-26 cells and MEFs; experiment: H2O2-induced mtDNA release from cells in culture; assay type: cell-based, mouse; conditions: 20 μM compound, 100 or 200 μM H2O2, 20 h, CT-26 and MEFs
Procedure: Murine colorectal carcinoma cell line from a BALB/c mouse (CT26) and mouse embryonic fibroblast (MEF) cell lines were grown at 37° C. under an atmosphere of 95% air and 5% CO2 in DMEM supplemented with 10% FBS, 2 mM L-glutamine, 1,000 U/ml penicillin and 1 mg/ml streptomycin.
Cells were seeded (150,000 cells/well) in 6-well culture dishes to 40-60% confluence. After 24 h cells were incubated for 20 h with 100 or 200 μM of H2O2 in the absence or the presence of VBIT-4 and VBIT-12. Cells washed and subjected to mtDNA release as described below. For VDAC1 silencing, CT-26 cells were seeded (150,000 cells/well) in 6-well culture dishes to 40-60% confluence. After 24 h cells were transfected with 75 nM of non-targeting siRNA (si-NT) or siRNA targeting VDAC1 recognizing both human and mouse VDAC1 (si-m/hVDAC1) using the JetPRIME transfection reagent, according to the manufacturers' instructions. Forty-eight (48) h post-transfection with either si-NT or si-m/hVDAC1, cells were incubated for 20 h with 100 μM of H2O2. Cells washed and subject to mtDNA release as described below.
Cells (e.g., CT-26, MFFs) were re-suspended in 170 μl digitonin buffer containing 150 mM NaCl, 50 mM HEPES pH 7.4, and 25 μg/ml digitonin (EMD Millipore Corp). The homogenates are incubated on a rotator for 10 min at room temperature, followed by centrifugation at 16,000 g for 25 min at 4° C. […]

[4] = test system: DSS-induced IBD mice; experiment: Dextran sodium sulfate (DSS)-induced colitis / IBD mouse model: weight, survival, colon and cecum length, clinical score, spleen weight; assay type: in vivo, C57BL/6 mice; remark: listed apart in the source
[5] = DSS-induced IBD mice, 20 mg/kg, n=6
[6] = DSS-induced IBD mice, 20 mg/kg, value before the brackets
[7] = DSS-induced IBD mice, 20 mg/kg, value in brackets

O=C(CC(CO)N1CCN(c2ccc(OC(F)(F)F)cc2)CC1)Nc1ccc(Cl)cc1 (centres unmarked) [VBIT-4, N-(4-chlorophenyl)-4-hydroxy-3-(4-(4-(trifluoromethoxy)phenyl)-piperazin-1-yl)butanamide]
% Mortality ([1]; 2.5% DSS, 20 mg/kg, n=6): 33.3% | died (number of mice) ([1]; 2.5% DSS, 20 mg/kg, n=6): 2 | Body weight at experiment termination versus DSS-induced IBD mice (in words) ([1]; DSS-induced IBD mice): higher weights | Survival rate at experiment termination versus DSS-induced IBD mice (in words) ([1]; DSS-induced IBD mice): increased survival rates | Cecum length, mm [1, 5]: 8.7 ± 2.4 mm | MMS (mean maximal score; stool consistency and rectal bleeding, 0-5) [1, 5]: 3.05 ± 0.55 | Colon length, mm ([1]; DSS-induced IBD mice, 20 mg/kg, n=6, at termination): 48.00 ± 4.84 mm | Change of weight, day 1 to day 8 (absolute) [1, 6]: −3.2 gr | Change of weight, day 8 to day 15 (absolute) [1, 6]: 1.7 gr | Change (%) of weight, day 1 to day 8 [1, 7]: −20.8% | Colon, % Shortening relative to the DSS-induced control (=100) [1, 7]: 73% | Cecum, % Shortening ([1]; DSS-induced IBD mice, 20 mg/kg, versus naive): 33.1% | Colon, % Shortening ([1]; DSS-induced IBD mice, 20 mg/kg, versus naive, value before the brackets): 26.2% | Weight (gr) day 1 ([1]; DSS-induced IBD mice, compound 20 mg/kg, day 1): 15.4 gr | Weight (gr) day 8 ([1]; DSS-induced IBD mice, compound 20 mg/kg, day 8): 12.2 gr | Colon histology: inflammatory cells and infiltration ([2]; compared to IBD mice): fewer inflammatory cells with reduced/no infiltration activity | Colon histology: colon wall thickness / villi ([2]; compared to IBD mice and non-IBD control): thinner colon walls | Release of mtDNA from cells induced by H2O2 [3]: inhibited | Change (%) of weight, day 8 to day 15 ([4]; 20 mg/kg, value in brackets): 13.9% | Weight (gr) day 15 ([4]; compound 20 mg/kg, day 15): 13.9 gr
